Data from patent US9497963B2, “Methods and compositions for control of gypsy moth, Lymantria dispar” (Simon Fraser University, priority 2008, dated 2016).

Assays:
[1] = tested on: male gypsy moth antenna; test: Coupled gas chromatographic-electroantennographic detection (GC-EAD); design: species or system Lymantria dispar; conditions: EAD peak size and shape (sharp/broad)
From the text: In GC-EAD assays, the analyte is processed by gas chromatography (GC). The column effluent is split, such that molecules of each chromatographic peak arrive simultaneously at the flame ionization detector of the GC and at an anectomized but otherwise intact insect antenna as the biological detector. This procedure detects specific compounds in the analyte that elicit an electrical potential from the antenna.
For GC-EAD recordings, an antenna was carefully dislodged from a male moth's head, and the antennal base placed into the opening of a glass capillary electrode (0.58 mm ID×65 mm length) (A-M Systems, Inc., Carlsborg, Wash., USA) filled with saline solution. The tip of the antenna was removed by spring microscissors (Fine Science Tools Inc., North Vancouver, British Columbia, Canada) and then placed into the opening of the recording electrode mounted on a portable micromanipulator and positioned in front of a constant stream of warm air (Praxair Canada Inc., Mississauga, Ontario, Canada) which delivered the GC column eluent. […] Identical retention times of compounds detected by the flame ionization detector of the GC and by the insect antenna allowed assignment of antennal responses to specific compounds in the eluent.

[2] = tested on: male gypsy moth antenna response to pheromone (+)-1; test: EAG short-term (STI) and long-term (LTI) inhibition of pheromone signaling (Example 5); design: species or system Lymantria dispar; conditions: for inhibition at 0.001 mg / inhibition at 0.01 mg / inhibition at 0.1 mg / inhibition at 100 µg, 0.1 mg: Lymantria dispar; for inhibition at 0.001 mg / inhibition at 0.01 mg / inhibition at 0.1 mg / Activity (%): short-term inhibition (STI): negative = enhancement; for inhibition at 0.001 mg / inhibition at 0.01 mg / inhibition at 0.1 mg: read-out: Activity (%): short-term inhibition (STI); for inhibition at 100 µg, 0.1 mg: read-out: Activity (%): long-term inhibition (LTI)
Description: The puffs are numbered i-vi and were: i=air, ii=pure pheromone (+)-disparlure, (+)-1, (100 ng), iii-v=disparlure mixed with the test compound, the latter at three different doses, vi=pure (+)-1. Depolarizations from the resting potential are labeled d; hyperpolarizations seen during the recovery phase after a puff are labeled r. Subscripts refer to the puff number. FIG. 5A. Typical trace for compound 3c{2,3}. FIG. 5B. Typical trace for compound 3a{4,4}.
For other compounds, EAG traces were recorded as follows: a fully dislodged antenna from a male gypsy moth was mounted on the end of a reference electrode (a glass capillary with a silver wire, filled with buffered saline: 5 mM NaH2PO4, 10 mM Na2SO4, 4.5 mM KHCO3, 18 mM MgCl2, 4 mM CaCl2, 6 mM KCl, the pH is adjusted to 6.8 using 5 mM Na2HPO4). The tip of the antenna was severed with microscissors and placed in the recording electrode, which was mounted on a micromanipulator. A constant stream of air, that had been purified (charcoal filter), was blown over the antenna at a rate of 300 mL/min. Test samples were delivered through a stimulus delivery tube with a side opening 2 cm from the distal opening. The proximal end of the delivery tube was connected to a controlled stimulus delivery apparatus (Stimulus controller CS-05 Syntech Research and Equipment, NL 1200BM, Hilversum, The Netherlands). The distal end of the delivery tube pointed at the antenna (1 cm from the antenna). The side opening was connected to a cartridge fashioned from a Pasteur pipette which contained a small filter paper (Whatman No. 1) with the stimulus. These pipette cartridges could be prepared a few days in advance and stored at −80° C. wrapped in Al foil and in sealable plastic bags. Sample cartridges were mounted once they had reached room temperature. The stimulus delivery apparatus delivered a second stream of air (a puff) through the Pasteur pipette at a velocity of 600 mL/min, at a specified point in time, for 0.3 s. Receptor potentials of the antennae in response to test stimuli were recorded with a Syntech IDAC probe, amplifier and interfaced board, and were analyzed with EAG Syntech Software Version 2.4 (1996). See FIG. 4 for a representative EAG trace. The EAG traces were evaluated as follows (see FIG. 5).
The net depolarizations, d(net) (in mV), of puffs ii-vi,d(sample), (corrected for the depolarization with clean air, d(air)) d(net)=d(sample)−d(air) (Eq. 1)
The percentage short-term inhibition for each compound (STI(compound)) of puffs iii-v, relative to the first pure pheromone puff (ii) STI(compound)=100×(d(net)(ii)−d(net)(compound))/d(net)(ii) (Eq. 2)
c) the percentage long-term inhibition for each compound (LTI(compound)) of the pure pheromone puff that followed the last mixed puff (vi) relative to the first pure pheromone puff (ii) LTI(compound)=100×(d(net)(ii)−d(net)(vi))/d(net)(ii) (Eq. 3)
The compounds we tested gave weak or no olfactory responses by themselves in electroantennogram (EAG) experiments. The EAG trace reflects the change in the potential across the antenna when an air puff with an odorant is passed over the antenna. To understand the agonistic or antagonistic effect of the compounds on pheromone responses by male moth antennae, four types of EAG experiment were conducted. First, the response of the antenna elicited by a stimulus of pure (+)-1 was compared to the responses elicited by blends of (+)-1 with the test compound (FIG. 5). […] This effect was termed short-term inhibition (STI). […] Second, the time decay and dose responses for LTI activities were studied. Third, the strongest inhibitors were tested for their ability to cause LTI by themselves.
This experiment explored the agonistic or antagonistic activity of the synthetic aromatic compounds (Scheme 1 and eugenol and alkyl eugenols) with the gypsy moth pheromone (+)-1. […]

[3] = mixed plume (+)-1 100 ng + compound 1 μg, mean ± S.E.
[4] = mixed plume (+)-1 100 ng + compound 10 μg, mean ± S.E.
[5] = mixed plume (+)-1 100 ng + compound 100 μg (puff v), mean ± S.E.
[6] = pure (+)-1 100 ng plume following mixed plume with 100 μg compound, mean ± S.E.

SMILES | GC-EAD activity [1] | inhibition at 0.001 mg [2, 3] [%] | inhibition at 0.01 mg [2, 4] [%] | inhibition at 0.1 mg [2, 5] [%] | inhibition at 100 µg, 0.1 mg [2, 6] [%] | short-term effect on antennal pheromone response (in words) [2] | Activity (%): short-term inhibition (STI) [2, 3] | Activity (%): short-term inhibition (STI) [2, 4] | Activity (%): short-term inhibition (STI) [2, 5] | Activity (%): long-term inhibition (LTI) [2, 6] | long-term inhibition (LTI) activity (in words) [2]
CCOc1ccccc1O [2a{2}, 2-Ethoxy phenol] | None | 42 ± 12 | 26 ± 12 | 58 ± 11 | 6 ± 4 | – | – | – | – | – | –
CCCOc1ccccc1O [2a{3}, 2-Propoxy phenol] | None | -26 ± 14 | 32 ± 9 | 46 ± 13 | 18 ± 5 | – | – | – | – | – | –
CCCCOc1ccccc1O [2a{4}, 2-Butoxy phenol] | None | 26 ± 12 | 21 ± 11 | 50 | 5 ± 6 | – | – | – | – | – | –
CC(C)CCOc1ccccc1O [2a{5}, 2-(3-Methyl-butyloxy) phenol] | None | 22 ± 8 | -44 ± 26 | -37 ± 33 | 6 ± 6 | slightly agonistic | – | – | – | – | –
C=CCOc1ccccc1O [2a{6}, 2-Allyloxy phenol] | None | -63 ± 62 | -33 ± 40 | -31 ± 71 | 16 ± 8 | – | – | – | – | – | –
COc1cccc(O)c1 [2b{1}, 3-Methoxy phenol] | None | 6 ± 11 | 14 ± 22 | 49 ± 8 | 4 ± 7 | – | – | – | – | – | –
CCOc1cccc(O)c1 [2b{2}, 3-Ethoxy phenol] | None | 4 ± 20 | 0 | 44 ± 18 | -3 ± 5 | – | – | – | – | – | –
CCCOc1cccc(O)c1 [2b{3}, 3-Propoxy phenol] | None | -6 ± 14 | 36 ± 19 | 65 ± 14 | 8 ± 6 | – | – | – | – | – | –
CCCCOc1cccc(O)c1 [2b{4}, 3-butoxyphenol] | None | -6 ± 18 | -20 ± 31 | -74 ± 71 | -1 ± 15 | short-term enhancements | – | – | – | – | –
CC(C)CCOc1cccc(O)c1 [2b{5}, 3-(3-Methyl-butyloxy) phenol] | None | -87 ± 63 | -111 ± 78 | -9 ± 58 | 4 ± 7 | – | – | – | – | – | –
C=CCOc1cccc(O)c1 [2b{6}] | None | – | – | – | – | – | 24 ± 23 (7) % | 28 ± 20 (7) % | 5 ± 32 (7) % | 1 ± 7 (7) % | –
CCCCOc1ccc(O)cc1 [2c{4}, 4-Butoxy phenol] | None | 12 ± 37 | 38 ± 11 | -122 ± 84 | 26 ± 13 | short-term enhancements | – | – | – | – | –
C=CCOc1ccc(O)cc1 [2c{6}, 4-Allyloxy phenol] | None | 19 ± 10 | 42 ± 8 | 46 ± 10 | 24 ± 8 | – | – | – | – | – | –
CC(C)CCOc1ccccc1OCCC(C)C [3a{5,5}, 1,2-Di-(3-methyl-butyloxy) benzene] | None | -77 ± 58 | -55 ± 67 | -105 ± 81 | 0 | – | – | – | – | – | –
C=CCOc1ccccc1OCC=C [3a{6,6}, 1,2-Diallyloxy benzene] | None | 32 ± 16 | 16 ± 24 | -27 ± 48 | 17 ± 28 | – | – | – | – | – | –
COc1cccc(OC)c1 [3b{1,1}, 1,3-Dimethoxy benzene] | Trace | 25 ± 18 | 9 ± 40 | 44 ± 36 | 1 ± 8 | – | – | – | – | – | –
C=CCOc1cccc(OC)c1 [3b{1,6}, 1-allyloxy-3-methoxybenzene] | None | -67 ± 61 | -107 ± 88 | -95 ± 106 | 14 ± 13 | – | – | – | – | – | –
CCOc1cccc(OCC)c1 [3b{2,2}, 1,3-Diethoxy benzene] | Trace | -100 ± 51 | -12 ± 70 | 63 ± 65 | 39 ± 6 | – | – | – | – | – | –
CCCOc1cccc(OCCC)c1 [3b{3,3}, 1,3-Dipropoxy benzene] | None | 36 ± 11 | 1 ± 26 | -2 ± 34 | 45 ± 12 | – | – | – | – | – | –
C=CCOc1cccc(OCCC)c1 [3b{3,6}, 1-allyloxy-3-propoxybenzene] | None | -85 ± 30 | -85 ± 80 | -96 ± 98 | 48 ± 7 | – | – | – | – | – | most active long-term inhibitor
CCCCOc1cccc(OCCCC)c1 [3b{4,4}, 1,3-Dibutoxy benzene] | None | 4 ± 45 | -72 ± 91 | -42 ± 93 | 8 ± 9 | – | – | – | – | – | –
C=CCOc1cccc(OCCCC)c1 [3b{4,6}, 1-allyloxy-3-n-butoxybenzene] | None | -66 ± 43 | -101 ± 76 | 8 ± 46 | 27 ± 12 | – | – | – | – | – | –
CC(C)CCOc1cccc(OCCC(C)C)c1 [3b{5,5}, 1,3-Di-(3-methyl-butyloxy) benzene] | None | 41 ± 13 | -38 ± 41 | -51 ± 51 | 9 ± 9 | – | – | – | – | – | –
C=CCOc1cccc(OCCC(C)C)c1 [3b{5,6}, 1-allyloxy-3-isopentoxybenzene] | None | -69 ± 34 | -85 ± 65 | -99 ± 88 | 15 ± 8 | – | – | – | – | – | –
C=CCOc1cccc(OCC=C)c1 [3b{6,6}, 1,3-Diallyloxy benzene] | None | 11 ± 18 | 10 ± 22 | -34 ± 41 | 33 ± 12 | – | – | – | – | – | –
